Results reported in patent publication US20260002121A1, “IMPROVED METHODS OF PREPARING DIFFERENT MESODERM CELL TYPES” (Children's Hospital Medical Center, priority 2021, published 2026).

Key:
[1] = system: hPSC-derived lateral plate mesoderm / splanchnic mesoderm cultures; assay: RT-PCR of marker genes in hPSC-derived lateral plate/splanchnic mesoderm cultures (Example 9); type: cell-based, human; conditions: primitive SM treated d4-d7
Experimental: Differentiation of hPSCs into lateral plate mesoderm was induced using previously described methods with modifications. In brief, partially confluent hPSCs were dissociated into very fine clumps in Accutase (Invitrogen) and passaged 1:18 onto new Geltrex-coated 24-well plates for immunocytochemistry and 12-well plates for RNA preparation in mTeSR1 with 1 μM thiazovivin (Tocris) ([…]). Next day, a brief wash with DMEM/F12 was followed with Day 0 medium (30 ng/mL Activin A (Cell Guidance Systems), 40 ng/mL. BMP4 (R&D Systems), 6 μM CHIR99021 (Tocris), 20 ng/mL FGF2 (Thermo Fisher), 100 nM PIK90 (EMD Millipore)) for 24 hours. A basal media composed of Advanced DMEM/F12, N2, B27, 15 mM HEPES, 2 mM […], penicillin-streptomycin was used for this Day 0 medium and all subsequent differentiations. On Day 1, a brief wash with DMEM/F12 was followed with Day 1 medium (1 μM A83-01 (Tocris), 30 ng/mL BMP4, 1 μM C59 (Cellagen Technology)) for 24 hours. For cardiac mesoderm generation, cells were cultured in 1 μM A83-01, 30 ng/mL BMP4, 1 μM C59, 20 ng/mL FGF2 from Day 2 to Day 4 (medium changed every day). From Day 4, cells were cultured in 200 μg/mL 2-phospho-ascorbic acid (Sigma), 1 μM XAV939 (Sigma), 30 ng/mL BMP4 for 3 days. […] Significance was determined by one-way ANOVA, followed by Tukey's test.

hPSC-derived mesoderm = assay: Quantitative RT-PCR gene expression of differentiating mesoderm (Example 11); type: cell-based, human; conditions: longer and higher levels of Wnt activation (CHIR timing)
Experimental: Total RNA was prepared from differentiating human ES cells by using Nucleospin kit according to manufacturer's protocol. Reverse transcription PCR was performed by Superscript VILO cDNA synthesis kit. QuantStudio 5 and 6 were used for qPCR analyses. Statistics were performed with PRISM8 (GraphPad Software). Significance was determined by one-way ANOVA, followed by Tukey's test.
After SpM differentiation, the cells can be observed with an inverted microscope. The cells should be at 100% confluency (FIG. 9A). The efficiency of SpM induction can be checked by immunostaining for FOXF1 and/or ISL1, or expression of relative gene profiles as provided in Table 1.
The efficiency of organ-specific mesoderm differentiation can be checked by immunostaining for WT1, PITX1, FOXF1, NKX6.1, and/or TBX5, or expression of relative gene profiles as provided in Table 1.

Compound	organ-specific SM-like lineage identity (gene expression) [1]	NKX6-1 expression (hPSC-derived mesoderm)	WNT2 expression (hPSC-derived mesoderm)
c1ccc2c(Oc3nc(Nc4ccc(N5CCOCC5)cc4)c4ncn(C5CCCCC5)c4n3)cccc2c1 [HH-agonist, purmorphamine]	promoted gut tube identity and efficiently blocked the hepatic fate		
Cc1c[nH]c(-c2cnc(NCCNc3ccc(C#N)cn3)nc2-c2ccc(Cl)cc2Cl)n1 [CHIR, CHIR99021]		suppressed	promoted
